According to publication PMC12921513 (ACS Bio & Med Chem Au, 2025):
Several values for one entry are separate records, joined by “and”; a condition that tells them apart may be missing. Identical values can stand only once.

These compounds were tested on SaFabI (assay: SaFabI fluorescence intensity counter-screen). Conditions: 30 μM inhibitor, 200 nM enzyme.
Experimental: A similar fluorescence intensity assay was utilized to counter-screen against S. aureus (SaFabI) to determine the degree of selectivity for FabK over FabI.
The SaFabI assay was conducted as follows. Reactions were carried out at 25 °C in the assay buffer (50 mM MES pH 5.5, 100 mM NaCl). […] The oxidation of NADPH to NADP^+ was measured by tracking fluorescence (340 nm/460 nm) with a Biotek Synergy H1 microplate reader in 15 s intervals for a total of 10 min to monitor the rate of reaction. Reaction was conducted in Greiner Bio-One 384-Well μClear Bottom Polystyrene Microplates. The percent inhibition of each compound was calculated on the basis of the resulting velocity.
With CS(=O)(=O)c1ccc2nc(NC(=O)NCc3nc(-c4ccc(Br)cc4)c[nH]3)sc2c1 [compound 2] the “SaFabI % inhibition, 30 μM” value was 21.0%.
For O=C(NCc1nc(-c2ccc(Br)cc2)c[nH]1)Nc1nc2cc(Cl)ccc2s1 [compound 3], the “SaFabI % inhibition, 30 μM” value was 9.8%.
In the case of O=C(NCc1nc(-c2ccc(Br)cc2)c[nH]1)Nc1nc2cccc(C(F)(F)F)c2s1 [compound 4], the “SaFabI % inhibition, 30 μM” value is reported as 18%.
Oc1cc(Cl)ccc1Oc1ccc(Cl)cc1Cl [triclosan, reference compound] was tested, and the “SaFabI % inhibition, 30 μM” value was 99% and 99.9%.
